Laboratory results: patent publication US20250312258A1, “2,3-PYRROLIDINEDIONE CONJUGATES AND METHODS OF USING THEREOF” (North Carolina State University, priority 2022, published 2025)
In brackets after ≈: the same amount, converted by molar mass. Read-outs that look alike come from different tables or passages of the source.

Tests used:
S. aureus 25923 = experiment: Broth microdilution MIC, S. aureus 25923; format: cell-based, Staphylococcus aureus; details: Staphylococcus aureus, 25923, read-out: MIC (S. aureus 25923)
S. aureus 29213 = experiment: Broth microdilution MIC, S. aureus 29213; format: cell-based, Staphylococcus aureus
MRSA 33591 = experiment: Broth microdilution MIC, MRSA 33591; format: cell-based; details: Staphylococcus aureus, read-out: MIC (MRSA 33591)
VRSA [1] = experiment: MIC against VRSA (Table 2); format: cell-based; details: Staphylococcus aureus, read-out: MIC (VRSA)
vanA VRE 700221 = experiment: MIC against vanA VRE 700221; format: cell-based, Enterococcus spp.; details: Enterococcus, VRE
vanC-1 VRE 49608 = experiment: MIC against vanC-1 VRE 49608; format: cell-based, Enterococcus spp.; details: Enterococcus, VRE
VRSA [2] = experiment: MIC against VRSA strain panel (VRS/NRS strains); format: cell-based; details: Staphylococcus aureus
VRE = experiment: MIC / in vitro activity against VRE strain panel; format: cell-based, Enterococcus spp.
MRSA = experiment: MIC against MRSA strain panel; format: cell-based; details: Staphylococcus aureus, the 4th table
MSSA = experiment: MIC against MSSA strain panel; format: cell-based; details: Staphylococcus aureus, the 4th table

CN[C@H](CC(C)C)C(=O)N[C@H]1C(=O)N[C@@H](CC(N)=O)C(=O)N[C@H]2C(=O)N[C@H]3C(=O)N[C@H](C(=O)N[C@H](C(=O)O)c4cc(O)cc(O)c4-c4cc3ccc4O)[C@H](O)c3ccc(c(Cl)c3)Oc3cc2cc(c3O[C@@H]2O[C@H](CO)[C@@H](O)[C@H](O)[C@H]2O[C@H]2C[C@](C)(N)[C@H](O)[C@H](C)O2)Oc2ccc(cc2Cl)[C@H]1O [Vancomycin, vancomycin, reference compound]
MIC (S. aureus 25923): 2 µg/mL (≈ 1.38 µM) | MIC (S. aureus 29213; Staphylococcus aureus, 29213, read-out: MIC (S. aureus 29213)): 1 µg/mL (≈ 0.69 µM) | MIC (S. aureus 29213; Staphylococcus aureus, ATCC 29213 / MRSA): 0.5 µg/mL (≈ 0.345 µM) | MIC (MRSA 33591): 2 µg/mL (≈ 1.38 µM) | MIC (VRSA [1]): 64 µg/mL (≈ 44.2 µM) | MIC (vanA VRE 700221): 512 µg/mL (≈ 353 µM) | MIC (vanA VRE 700221; read-out: MIC (vanA VRE 700221)): 512 µg/mL (≈ 353 µM) | MIC (vanC-1 VRE 49608): 32 µg/mL (≈ 22.1 µM) | MIC (vanC-1 VRE 49608; read-out: MIC (vanC-1 VRE 49608)): 32 µg/mL (≈ 22.1 µM) | MIC (VRSA [2]; NRS 1 / VRSA, NRS-1 (VRSA), the 3rd table): 8 µg/mL (≈ 5.52 µM) | MIC (VRSA [2]; NRS 1 / VRSA, NRS-1 VRSA, the 5th table): 8 µg/mL (≈ 5.52 µM) | MIC (VRSA [2]; NRS 2 / VRSA, NRS-2 VRSA, the 5th table): 1 µg/mL (≈ 0.69 µM) | MIC (VRSA [2]; VRSA, VRS-1 (VRSA), the 3rd table): > 64 µg/mL | MIC (VRSA [2]; VRSA, VRS-1 VRSA, the 5th table): > 64 µg/mL | MIC (VRSA [2]; VRSA, VRS-2 (VRSA), the 3rd table): 32 µg/mL (≈ 22.1 µM) | MIC (VRSA [2]; VRSA, VRS-2 VRSA, the 5th table): 32 µg/mL (≈ 22.1 µM) | MIC (VRSA [2]; VRSA, VRS-3a VRSA, the 5th table): 32 µg/mL (≈ 22.1 µM) | MIC (VRSA [2]; VRSA, VRS-3b VRSA, the 5th table): > 64 µg/mL | MIC (VRSA [2]; VRSA, VRS-4 (VRSA), the 3rd table): 32 µg/mL (≈ 22.1 µM) | MIC (VRSA [2]; VRSA, VRS-4 VRSA, the 5th table): > 64 µg/mL | MIC (VRSA [2]; VRSA, VRS-5 VRSA, the 5th table): > 64 µg/mL | MIC (VRSA [2]; VRSA, VRS-6 VRSA, the 5th table): > 64 µg/mL | MIC (VRSA [2]; VRSA, VRS-7 VRSA, the 5th table): > 64 µg/mL | MIC (VRSA [2]; VRSA, VRS-8 VRSA, the 5th table): > 64 µg/mL | MIC (VRSA [2]; VRSA, VRS-9 VRSA, the 5th table): > 64 µg/mL | MIC (VRSA [2]; VRSA, VRS-10 VRSA, the 5th table): > 64 µg/mL | MIC (VRSA [2]; VRSA, VRS-11a VRSA, the 5th table): > 64 µg/mL | MIC (VRSA [2]; VRSA, VRS-11b VRSA, the 5th table): > 64 µg/mL | MIC (VRE; 1593 (VRE), the 3rd table): >64 µg/mL | MIC (VRE; 1593 VRE, the 4th table): >64 µg/mL | MIC (VRE; 1751 (VRE), the 3rd table): >64 µg/mL | MIC (VRE; 1751 VRE, the 6th table): >64 µg/mL | MIC (VRE; 1772 VRE, the 6th table): >64 µg/mL | MIC (VRE; 1946 VRE, the 6th table): >64 µg/mL | MIC (VRE; 2059 VRE, the 6th table): >64 µg/mL | MIC (VRE; 2431 VRE, the 6th table): >64 µg/mL | MIC (VRE; 2574 VRE, the 6th table): >64 µg/mL | MIC (VRE; 3053 VRE, the 6th table): >64 µg/mL | MIC (VRE; 3183 (VRE), the 3rd table): >64 µg/mL | MIC (VRE; 3183 VRE, the 6th table): >64 µg/mL | MIC (VRE; 3190 VRE, the 6th table): >64 µg/mL | MIC (VRE; 3191 VRE, the 6th table): >64 µg/mL | MIC (VRE; 3222 (VRE, the 3rd table)): >64 µg/mL | MIC (VRE; 3222 VRE, the 6th table): >64 µg/mL | MIC (VRE; 3235 VRE, the 6th table): >64 µg/mL | MIC (VRE; 3239 VRE, the 6th table): >64 µg/mL | MIC (VRE; 3241 VRE, the 6th table): >64 µg/mL | MIC (VRE; 3623 VRE, the 6th table): >64 µg/mL | MIC (VRE; Enterococcus, VRE): > 64 µg/mL | MIC (MRSA; 6215 MRSA): 1 µg/mL (≈ 0.69 µM) | MIC (MRSA; 6217 MRSA): 1 µg/mL (≈ 0.69 µM) | MIC (MRSA; 6218 MRSA): 1 µg/mL (≈ 0.69 µM) | MIC (MRSA; 6220 MRSA): 0.5 µg/mL (≈ 0.345 µM) | MIC (MRSA; 6231 MRSA): 0.5 µg/mL (≈ 0.345 µM) | MIC (MRSA; AR-978 MRSA): 1 µg/mL (≈ 0.69 µM) | MIC (MRSA; AR-979 MRSA): 1 µg/mL (≈ 0.69 µM) | MIC (MRSA; AR-993 MRSA): 1 µg/mL (≈ 0.69 µM) | MIC (MRSA; AR-997 MRSA): 1 µg/mL (≈ 0.69 µM) | MIC (MSSA; VGP16-94 MSSA): 0.5 µg/mL (≈ 0.345 µM) | MIC (MSSA; VGP16-95 MSSA): 0.5 µg/mL (≈ 0.345 µM) | MIC (MSSA; VGP16-96 MSSA): 0.5 µg/mL (≈ 0.345 µM) | MIC (MSSA; VGP16-97 MSSA): 0.5 µg/mL (≈ 0.345 µM) | MIC (MSSA; VGP16-98 MSSA): 0.5 µg/mL (≈ 0.345 µM)
